Laboratory results reported in US4735943A, “Eburnamonine oxime derivatives, salts thereof, and pharmaceutical agents containing the same” (Sanwa Kagaku Kenkyusho Co., Ltd., priority 1984, dated 1988).

Columns and labels:
in vivo = settings: mouse, male mice, oral, mortality after 72 hours
d,d-mice = experiment: Cerebral Function Protection (recovery after rod dropped on vertex); type: in vivo, male; settings: 10 mg/kg oral, 30 min before, negative values given as "not effective"
Procedure: (Cerebral Function Protection) To each of male d,d-mice (16-24 g, 6 to 24 animals/group), each of testing compounds was orally administered in an amount of 10 mg/kg. After 30 minutes from the administration, a cylindrical rod made of bakelite (diameter: 1 cm, weight: 36 g) was free dropped with a level height of 40 cm on a vertex of the mouse to hypnotize the same, in accordance with a method disclosed by […] et al ["Tyaku-no-Ayumi (The Progress in Medicines)", 104 (4), 253, 1978]. Observations were continued until a recovering reflex from the lethargy and a spontaneous motion appear to determine a reduction ratio of time period on such behavior appearances.

[1] = tested on: erythrocyte deformability; experiment: Acceleration on Erythrocyte Deformability (filtration-pressure method); type: in vivo, Wister male rats; settings: rats, 10 mg/kg oral, blood 1 h after administration, 0.1% erythrocyte suspension
Procedure: (Acceleration on Erythrocyte Deformability) Each of testing compounds was orally administered to an amount of 10 mg/kg to Wister male rats (about 250 g, 5 animals/group). After one hour from the administration, blood sample was collected to prepare 0.1% erythrocyte suspension. An action of the compound to an erythrocyte deformability was studied in accordance with a filtration-pressure method to obtain results as shown in following Table 5.

[2] = tested on: blood flow in vertebral artery; experiment: Cerebral Blood Flow Increase (blood flow in vertebral artery, electromagnetic rheometer); type: in vivo; settings: anesthetized mongrel dogs, 1.0 mg/dog into vertebral artery
Procedure: (Cerebral Blood Flow Increase) Male and female mongrel dogs anesthetized with nembutal (sodium pentobarbital) were employed as subject and a blood flow in vertebral artery of those animals were measured with use of an electromagnetic rheometer. Each of testing compounds was administered to vertebral artery in a ratio of 1.0 mg/dog to determine a change in blood flow in the vertebral artery.

[3] = tested on: collagen aggregation of platelets; experiment: Depression on Blood Platelet Aggregation, collagen; type: cell-based, Wister male rat; settings: in vitro, rat platelet plasma, read-out: depression Ratio to Collagen; for inhibition at 10 µg/mL: final conc. 10 μg/ml
Description: (§1) (Depression on Blood Platelet Aggregation) With use of a blood-plasma with excess platelets (obtained from a Wister male rat, about 250 g), a depressing effect of each testing compound to ADP and collagen aggregations was studied in vitro (3 to 5 samples/group).Results are shown in following Table 4.

[4] = tested on: brain of rats with an essential hypertension (SHR); experiment: Cerebral Metabolic Activation (cerebral ischemia by ligation of both common carotid arteries); type: in vivo, male); settings: 10 mg/kg oral 1 h after ligation, measured 5 h after ligation
Procedure: (Cerebral Metabolic Activation) According to a known method [Fujishima et al, "Rinshou-to-Kenkyu (The Clinics and Studies)" 51, 3532, 1974], both common carotid arteries of rats with an essential hypertension (SHR, male, 250-350 g, 4 to 5 animals/group) were ligated to cause a cerebral ischemia. After one hour from the ligation, each of testing compounds was orally administered in an amount of 10 mg/kg and various parameters in brain were measured at the time having lapsed 5 hours from the ligation.

[5] = tested on: ADP aggregation of platelets; experiment: Depression on Blood Platelet Aggregation, ADP; type: cell-based, Wister male rat; settings: in vitro, rat platelet plasma, read-out: depression Ratio to ADP; for inhibition at 10 µg/mL: final conc. 10 μg/ml, negative values given as "not effective"
Description: as §1

## CCN(CC)CCON=C1C[C@]2(CC)CCCN3CCc4c(n1c1ccccc41)[C@@H]32 [Example 2, (3α,16α)-eburnamenin-14(15H)-one O-[2-(N,N-diethylamino)ethyl]oxime]
In vivo
  LD50 at 72 h: 611 mg/kg
d,d-mice
  Reduction ratio, time to appear spontaneous motion: 48.7%
  Reduction ratio, time to recover sit-up reflex: 54.3%
[1]
  Reduction Rate in Filtering Pressure: 6.0%
[2]
  Increase in Blood Flow: 269.5%
[3]; final conc. 2 μg/ml
  inhibition at 2 µg/mL: 73.8%
[4]
  Amount of ATP in brain: 0.36 µmol/g
  Amount of Glucose in brain: 1030 nmol/g
  Amount of Lactic acid in brain: 4.62 µmol/g
[5]; final conc. 2 μg/ml
  inhibition at 2 µg/mL: 5.7%

## CC[C@]12CCCN3CCc4c(n(c5ccccc45)C(=NOCCN(C)C)C1)[C@@H]32 [Example 3, (3α,16α)-eburnamenin-14(15H)-one O-[2-(N,N-dimethylamino)ethyl]oxime]
In vivo
  LD50 at 72 h: 700 mg/kg
d,d-mice
  Reduction ratio, time to appear spontaneous motion: -11.3%
  Reduction ratio, time to recover sit-up reflex: -33.0%
[1]
  Reduction Rate in Filtering Pressure: 10.2%
[2]
  Increase in Blood Flow: 247.3%
[3]
  inhibition at 10 µg/mL: 3.2%
[4]
  Amount of ATP in brain: 0.18 µmol/g
  Amount of Glucose in brain: 740 nmol/g
  Amount of Lactic acid in brain: 7.01 µmol/g
[5]
  inhibition at 10 µg/mL: 5%

## CC[C@]12CCCN3CCc4c(n(c5ccccc45)C(=NOCCN4CCCC4)C1)[C@@H]32 [Example 4, (3α,16α)-eburnamenin-14(15H)-one O-[2-(1-pyrrolidinyl)ethyl]oxime]
In vivo
  LD50 at 72 h: 532 mg/kg
d,d-mice
  Reduction ratio, time to appear spontaneous motion: -71.6%
  Reduction ratio, time to recover sit-up reflex: -96.1%
[1]
  Reduction Rate in Filtering Pressure: 9.3%
[2]
  Increase in Blood Flow: 260.6%
[3]
  inhibition at 10 µg/mL: 4.4%
[4]
  Amount of ATP in brain: 0.25 µmol/g
  Amount of Glucose in brain: 896 nmol/g
  Amount of Lactic acid in brain: 6.34 µmol/g
[5]
  inhibition at 10 µg/mL: -10%

## CC[C@]12CCCN3CCc4c(n(c5ccccc45)C(=NOCCN4CCN(c5ccccc5OC)CC4)C1)[C@@H]32 [Example 5, (3α,16α)-eburnamenin 14(15H)-one O-{2-[4-(2-methoxyphenyl)-1-piperazinyl]ethyl}oxime]
In vivo
  LD50 at 72 h: 660 mg/kg
d,d-mice
  Reduction ratio, time to appear spontaneous motion: 6.9%
  Reduction ratio, time to recover sit-up reflex: 0.4%
[1]
  Reduction Rate in Filtering Pressure: 13.2%
[2]
  Increase in Blood Flow: 179.3%
[3]
  inhibition at 10 µg/mL: 9.3%
[4]
  Amount of ATP in brain: 0.28 µmol/g
  Amount of Glucose in brain: 802 nmol/g
  Amount of Lactic acid in brain: 5.50 µmol/g
[5]
  inhibition at 10 µg/mL: 5.5%

## CC[C@]12CCCN3CCc4c(n(c5ccccc45)C(=NOCC(O)CN4CCN(c5ccccc5OC)CC4)C1)[C@@H]32 (stereo partly drawn) [Example 6, (3α,16α)-eburnamenin-14(15H)-one O-{2-hydroxy-3-[4-(2-methoxyphenyl)-1-piperazinyl]propyl}oxime]
In vivo
  LD50 at 72 h: 560 mg/kg
d,d-mice
  Reduction ratio, time to appear spontaneous motion: 47.2%
  Reduction ratio, time to recover sit-up reflex: 23.5%
[1]
  Reduction Rate in Filtering Pressure: 35.1%
[2]
  Increase in Blood Flow: 357.7%
[3]
  inhibition at 10 µg/mL: 9.5%
[4]
  Amount of ATP in brain: 0.32 µmol/g
  Amount of Glucose in brain: 1010 nmol/g
  Amount of Lactic acid in brain: 4.95 µmol/g
[5]
  inhibition at 10 µg/mL: 6.3%

## CC[C@]12CCCN3CCc4c(n(c5ccccc45)C(=NO)C1)[C@@H]32 [Reference Example, (3α,16α)-eburnamenin-14(15H)-one oxime]
In vivo
  LD50 at 72 h: 510 mg/kg
d,d-mice
  Reduction ratio, time to appear spontaneous motion: -5.3%
  Reduction ratio, time to recover sit-up reflex: -12.4%
[1]
  Reduction Rate in Filtering Pressure: 8.3%
[2]
  Increase in Blood Flow: 144.9%
[3]
  inhibition at 10 µg/mL: 5.4%
[4]
  Amount of ATP in brain: 0.20 µmol/g
  Amount of Glucose in brain: 592 nmol/g
  Amount of Lactic acid in brain: 7.10 µmol/g
[5]
  inhibition at 10 µg/mL: -1.2%

## CCOC(=O)C1=C[C@]2(CC)CCCN3CCc4c(n1c1ccccc41)[C@@H]32 [vinpocetine, reference compound]
[1]
  Reduction Rate in Filtering Pressure: 46.3%
[2]
  Increase in Blood Flow: 261.4%
[3]
  inhibition at 10 µg/mL: 4%
[4]
  Amount of ATP in brain: 0.36 µmol/g
  Amount of Glucose in brain: 1120 nmol/g
  Amount of Lactic acid in brain: 7.00 µmol/g
[5]
  inhibition at 10 µg/mL: -0.2%
